Calls of active or inactive are those of the source.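 The calls were made as follows: active = over 30% block of the TRPC6 ion channel at some tested dose, plus a fitted dose-response curve; inactive = no block at any dose, or no fitted curve.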

Chain of Short transient receptor potential channel 6 (Mus musculus) (Q61143 whole entry, looked up): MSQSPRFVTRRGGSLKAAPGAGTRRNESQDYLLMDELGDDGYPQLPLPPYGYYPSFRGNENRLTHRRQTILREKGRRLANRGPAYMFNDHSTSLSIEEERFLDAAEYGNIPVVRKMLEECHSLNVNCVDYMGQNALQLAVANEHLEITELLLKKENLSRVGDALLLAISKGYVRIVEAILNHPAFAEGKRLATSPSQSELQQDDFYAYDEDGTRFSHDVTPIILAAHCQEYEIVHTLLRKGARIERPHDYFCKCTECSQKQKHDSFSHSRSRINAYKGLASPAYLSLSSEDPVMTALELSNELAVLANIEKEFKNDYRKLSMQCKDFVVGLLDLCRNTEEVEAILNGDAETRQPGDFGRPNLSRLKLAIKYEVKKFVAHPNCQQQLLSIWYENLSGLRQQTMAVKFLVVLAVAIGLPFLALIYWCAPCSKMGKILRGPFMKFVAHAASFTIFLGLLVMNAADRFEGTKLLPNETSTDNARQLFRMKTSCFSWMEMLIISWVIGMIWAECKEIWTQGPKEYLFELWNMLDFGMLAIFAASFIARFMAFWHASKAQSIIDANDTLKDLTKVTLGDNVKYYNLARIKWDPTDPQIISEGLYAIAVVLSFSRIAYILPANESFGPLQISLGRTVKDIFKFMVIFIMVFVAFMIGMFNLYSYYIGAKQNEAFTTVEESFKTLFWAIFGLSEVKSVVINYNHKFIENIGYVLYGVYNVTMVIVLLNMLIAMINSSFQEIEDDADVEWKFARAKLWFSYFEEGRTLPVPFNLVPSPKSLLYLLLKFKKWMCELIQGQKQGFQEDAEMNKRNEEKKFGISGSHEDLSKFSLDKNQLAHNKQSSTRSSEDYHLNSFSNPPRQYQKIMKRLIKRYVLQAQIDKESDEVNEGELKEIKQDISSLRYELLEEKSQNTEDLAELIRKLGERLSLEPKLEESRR

The first test addresses Short transient receptor potential channel 6 (Mus musculus) (UniProt Q61143). Put plainly: TRPC6 inhibition potency of TRPC4 inhibitor analogs, dose response, selectivity assay for selective TRPC4 inhibitor project, HEK293 cells, membrane potential dye, IC50 (AID 492987). As to conditions: at 20 µM (top of the series).
Regarding `FC(F)(F)c1cc(N2CCCCCC2)nc2ccccc12`, the “fluorescence ratio, lower = inhibition” value was “inactive”.
As for `Cc1ccnc(N2CCCCC2)c1`, the “fluorescence ratio, lower = inhibition” value is “inactive”.
For `Cc1cc(N2CC(C)CC(C)C2)nc2ccccc12` (stereo not given), the “fluorescence ratio, lower = inhibition” value was “inactive”.
The same measure, in the same setting: the same measure for `Cc1cc(N2CCC(C)CC2)nc2ccccc12`: “inactive”; for `Cc1cc(N2CCN(CC3CCCO3)CC2)nc2ccccc12` (stereo not given): “inactive”.
For `Cc1ccnc(N2CCCC2)n1`, the “fluorescence ratio, lower = inhibition” value was “inactive”.
On to `Cc1cc(N2CCOCC2)nc2ccccc12`, for which the “fluorescence ratio, lower = inhibition” value is “inactive”.
The same measure, in the same setting: the result for `Cc1cc(N2CCN(c3ccccc3C#N)CC2)nc2ccccc12` reads “inactive”.
Consider `CCc1ccc2nc(N3CCCCCC3)cc(C)c2c1`, for which the “fluorescence ratio, lower = inhibition” value is “inactive”.
The same measure, in the same setting: the same measure for `c1ccc(-c2cc(N3CCCC3)nc3ccccc23)cc1`: “inactive”; for `Cc1cc(N2CCCCCC2)nc2ccc(F)cc12`: “inactive”.
For the molecule `Cc1ccnc(N2CCCCCC2)n1`, the “fluorescence ratio, lower = inhibition” value was “inactive”.
Same read-out and setting: the same measure for `Cc1cc(N2CCN(c3ncccn3)CC2)nc2ccccc12`: “inactive”.
For the molecule `c1ccc(-c2cc(N3CCCCCC3)nc3ccccc23)cc1`, the “fluorescence ratio, lower = inhibition” value was “inactive”.
With `FC(F)(F)c1cc(N2CCCCC2)nc2ccccc12`, the “fluorescence ratio, lower = inhibition” value was “inactive”.
As for `c1ccc(-c2cc(N3CCCCC3)nc3ccccc23)cc1`, the “fluorescence ratio, lower = inhibition” value was “inactive”.
`COCCN(C)c1cc(C)c2ccccc2n1`: the “fluorescence ratio, lower = inhibition” value was “inactive”.
For the molecule `Cc1cc(N2CCCCCC2)nc2c(C)cccc12`, the “fluorescence ratio, lower = inhibition” value is “inactive”.
Still for that read-out and setting: the result for `Cc1cc(N2CCOc3ccccc32)nc2ccccc12` reads “inactive”; that for `Cc1cc(N2CCCC(O)C2)nc2ccccc12` (stereo not given), “inactive”; that for `Cc1cc(N(C)CCN(C)C)nc2ccccc12`, “inactive”.
Take `Cc1cc(N2CCN(C)CC2)nc2ccccc12`: the “fluorescence ratio, lower = inhibition” value is “inactive”.
Same read-out and setting: the result for `Cc1ccnc(N2CCCCCC2)c1` reads “inactive”; that for `Cc1ccnc(N2CCCC2)c1`, “inactive”.
As to `CCN(CC)c1cc(C)c2ccccc2n1`, the “fluorescence ratio, lower = inhibition” value was “inactive”.
Same read-out and setting: the result for `COc1ccc(N2CCN(c3cc(C)c4ccccc4n3)CC2)cc1` reads “inactive”.
Regarding `COc1ccccc1N1CCN(c2cc(C)c3ccccc3n2)CC1`, the “fluorescence ratio, lower = inhibition” value was “inactive”.
The same measure, in the same setting: the result for `Cc1ccnc(N2CCCCC2)n1` reads “inactive”.
On the same count and under the same terms, the same measure for `Cc1cc(N2CCCCC2)nc2c(C)cccc12`: “inactive”.

The test is the same for the next values; noted with them: membrane potential dye fluorescence.
As a reminder, the IC50 is the concentration at which inhibition is half-maximal. With `Cc1cc(N2CCCCC2)nc2ccccc12`, the IC50 was 17.9 µM.

Source of the values: PubChem BioAssay AID492987 (Johns Hopkins Ion Channel Center, 2010).
